Reference: the supplement of paper PMC4932681
Counter-ions that a name gives are not always drawn.

Columns and labels:
BT-474 Tam2 [1] = test: drug sensitivity score (DSS) (DSS (dimensionless)); higher = more sensitive; extreme values may be limits of the assay; conditions: 4-OH-tamoxifen in medium 1 µM; 72 h
Summary of the method: (§1)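 After seeding into 384-well plates with library drugs at five concentrations spanning a 10 000-fold range, breast cancer cell lines and their resistant derivatives were incubated 72 h at 37 °C. Resistant lines received medium with 1 μM of the selecting drug. CellTiter-Glo signal was read on a PHERAstar and scaled to vehicle-only and positive controls. Drug sensitivity score, relative IC50 (the curve midpoint) and top-dose inhibition came from logistic fits run in the Breeze pipeline.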

BT-474 [2] = test: as above; conditions: 72 h
Summary of the method: as §1

MCF-7 Tam1 [3] = test: as above; conditions: 4-OH-tamoxifen in medium 1 µM; 72 h
Summary of the method: as §1

BT-474 Tam1 [4] = test: as above; conditions: 4-OH-tamoxifen in medium 1 µM; 72 h
Summary of the method: as §1

MCF-7 [5] = test: as above; conditions: 72 h
Summary of the method: as §1

ZR-75-1 Tam1 [6] = test: as above; conditions: 4-OH-tamoxifen in medium 1 µM; 72 h
Summary of the method: as §1

ZR-75-1 [7] = test: as above; conditions: 72 h
Summary of the method: as §1

T-47D Tam2 [8] = test: as above; conditions: 4-OH-tamoxifen in medium 1 µM; 72 h
Summary of the method: as §1

ZR-75-1 Tam2 [9] = test: as above; conditions: 4-OH-tamoxifen in medium 1 µM; 72 h
Summary of the method: as §1

T-47D [10] = test: as above; conditions: 72 h
Summary of the method: as §1

T-47D Tam1 [11] = test: as above; conditions: 4-OH-tamoxifen in medium 1 µM; 72 h
Summary of the method: as §1

BT-474 Tam2 [12] = test: relative IC50 (midpoint of fitted logistic curve, plateau may be below 50% inhibition; CellTiter-Glo viability); higher = less potent; conditions: 4-OH-tamoxifen in medium 1 µM; 72 h
Summary of the method: as §1

BT-474 [13] = test: as above; conditions: 72 h
Summary of the method: as §1

MCF-7 Tam1 [14] = test: as above; conditions: 4-OH-tamoxifen in medium 1 µM; 72 h
Summary of the method: as §1

BT-474 Tam1 [15] = test: as above; conditions: 4-OH-tamoxifen in medium 1 µM; 72 h
Summary of the method: as §1

MCF-7 [16] = test: as above; conditions: 72 h
Summary of the method: as §1

ZR-75-1 [17] = test: as above; conditions: 72 h
Summary of the method: as §1

T-47D Tam2 [18] = test: as above; conditions: 4-OH-tamoxifen in medium 1 µM; 72 h
Summary of the method: as §1

ZR-75-1 Tam2 [19] = test: as above; conditions: 4-OH-tamoxifen in medium 1 µM; 72 h
Summary of the method: as §1

T-47D [20] = test: as above; conditions: 72 h
Summary of the method: as §1

T-47D Tam1 [21] = test: as above; conditions: 4-OH-tamoxifen in medium 1 µM; 72 h
Summary of the method: as §1

ZR-75-1 Tam1 [22] = test: as above; conditions: 4-OH-tamoxifen in medium 1 µM; 72 h
Summary of the method: as §1

Row | Compound | drug sensitivity score (BT-474 Tam2 [1]) | drug sensitivity score (BT-474 [2]; 4-OH-tamoxifen in medium 0 µM) | drug sensitivity score (BT-474 [2]; 4-OH-tamoxifen in medium 1 µM) | drug sensitivity score (MCF-7 Tam1 [3]) | drug sensitivity score (BT-474 Tam1 [4]) | drug sensitivity score (MCF-7 [5]; 4-OH-tamoxifen in medium 0 µM) | drug sensitivity score (MCF-7 [5]; 4-OH-tamoxifen in medium 1 µM) | drug sensitivity score (ZR-75-1 Tam1 [6]) | drug sensitivity score (ZR-75-1 [7]; 4-OH-tamoxifen in medium 0 µM) | drug sensitivity score (ZR-75-1 [7]; 4-OH-tamoxifen in medium 1 µM) | drug sensitivity score (T-47D Tam2 [8]) | drug sensitivity score (ZR-75-1 Tam2 [9]) | drug sensitivity score (T-47D [10]; 4-OH-tamoxifen in medium 0 µM) | drug sensitivity score (T-47D [10]; 4-OH-tamoxifen in medium 1 µM) | drug sensitivity score (T-47D Tam1 [11]) | relative IC50 (BT-474 Tam2 [12]) [µM] | relative IC50 (BT-474 [13]; 4-OH-tamoxifen in medium 0 µM) [µM] | relative IC50 (BT-474 [13]; 4-OH-tamoxifen in medium 1 µM) [µM] | relative IC50 (MCF-7 Tam1 [14]) [µM] | relative IC50 (BT-474 Tam1 [15]) [µM] | relative IC50 (MCF-7 [16]; 4-OH-tamoxifen in medium 0 µM) [µM] | relative IC50 (MCF-7 [16]; 4-OH-tamoxifen in medium 1 µM) [µM] | relative IC50 (ZR-75-1 [17]; 4-OH-tamoxifen in medium 0 µM) [µM] | relative IC50 (T-47D Tam2 [18]) [µM] | relative IC50 (ZR-75-1 Tam2 [19]) [µM] | relative IC50 (T-47D [20]; 4-OH-tamoxifen in medium 0 µM) [µM] | relative IC50 (T-47D [20]; 4-OH-tamoxifen in medium 1 µM) [µM] | relative IC50 (T-47D Tam1 [21]) [µM] | relative IC50 (ZR-75-1 Tam1 [22]) [µM] | relative IC50 (ZR-75-1 [17]; 4-OH-tamoxifen in medium 1 µM) [µM]
1 | COc1cc(Nc2ncc(F)c(Nc3ccc4c(n3)N(COP(=O)(O)O)C(=O)C(C)(C)O4)n2)cc(OC)c1OC | 0 | 0 | 2.25 | 1.04 | 2.63 | 2.7 | 4.99 | 1.22 | 0 | 0.307 | 3.3 | 1.42 | 2.65 | 1.95 | 4.15 | > 10 | > 10 | 2.92 | 6.95 | 3.56 | 1.79 | 2.36 | > 10 | 2.27 | 3.16 | 2.34 | 2.89 | 1.43 | – | –
2 | CN1CCC(COc2cnc(-c3cccc(Cn4nc(-c5cccc(C#N)c5)ccc4=O)c3)nc2)CC1 | 1.22 | 0 | 0 | 0 | 0 | 0 | 0.0353 | 0 | 0 | 0 | 0 | 0 | 0 | 0 | 3.13 | – | > 1 | > 1 | > 1 | > 1 | > 1 | – | > 1 | > 1 | > 1 | > 1 | > 1 | 0.314 | > 1 | > 1
3 | CCN(CC)CCOc1ccc(C(=C(Cl)c2ccccc2)c2ccccc2)cc1 [Clomifene citrate] | 8.36 | 4.53 | 5.95 | 3.09 | 5.39 | 0 | 6.09 | 1.02 | 0.493 | 1.42 | 2.56 | 2.03 | 0.434 | 1.21 | 3.26 | 1.79 | 3.34 | 2.38 | 3.2 | 2.8 | – | 2.36 | – | 3.17 | 3.33 | – | – | 1.83 | – | 3.81
4 | Oc1ncnc2[nH]ncc12 [Allopurinol] | 0 | 0 | 2.18 | 0 | 0 | 0 | 0 | 0 | 0 | 0 | 0 | 0 | 0 | 0 | 0 | – | > 10 | – | > 10 | > 10 | > 10 | > 10 | > 10 | > 10 | > 10 | > 10 | > 10 | > 10 | – | > 10
5 | CC[C@@H]1C(=O)OC[C@@H]1Cc1cncn1C [Pilocarpine] | 0 | 0 | 0 | 0 | 0 | 0 | 0 | 0 | 0 | 0 | 0 | 0 | 0 | 0 | 0 | – | > 40 | > 40 | > 40 | > 40 | > 40 | > 40 | > 40 | > 40 | > 40 | > 40 | > 40 | > 40 | > 40 | > 40
6 | COc1cccc2c1C(=O)c1c(O)c3c(c(O)c1C2=O)C[C@@](O)(C(=O)CO)C[C@@H]3O[C@H]1C[C@H](N)[C@H](O)[C@H](C)O1 [Doxorubicin] | 0.115 | 3 | 3.73 | 2.46 | 2.96 | 5.29 | 3.47 | 4.65 | 4.96 | 6.3 | 4.23 | 7.21 | 6.88 | 3.36 | 6.83 | – | 0.374 | 0.424 | 0.387 | 0.399 | 0.247 | 0.331 | 0.199 | 0.3 | 0.144 | 0.154 | 0.396 | 0.171 | 0.286 | 0.214
7 | S=P(N1CC1)(N1CC1)N1CC1 [Thio-TEPA] | 0 | 0 | 0 | 0 | 0 | 0 | 0 | 0.276 | 0 | 0 | 0 | 0 | 0 | 0 | 0 | > 100 | > 100 | > 100 | > 100 | > 100 | > 100 | > 100 | > 100 | > 100 | > 100 | > 100 | > 100 | > 100 | – | > 100
8 | COC1=CC(c2cc3ccccc3[nH]2)=N/C1=C\c1[nH]c(C)cc1C [Obatoclax (GX15-070)] | 12.1 | 6.87 | 0.367 | 4.3 | 3.09 | 2 | 8.57 | 1.02 | 1.96 | 2.4 | 3.22 | 4.94 | 3.35 | 2.73 | 8.83 | 0.619 | 1.27 | – | 1.79 | 1.59 | 3.66 | 1.1 | 2.38 | 1.53 | 1.42 | 2.22 | 2.6 | 0.797 | – | 1.71
9 | CC1(C)NC(=O)N(c2ccc([N+](=O)[O-])c(C(F)(F)F)c2)C1=O [Nilutamide] | 0 | 0 | 0 | 0 | 0 | 0 | 0.145 | 0 | 0 | 0 | 0 | 0 | 0 | 0 | 0 | – | > 10 | > 10 | > 10 | > 10 | > 10 | – | > 10 | > 10 | > 10 | > 10 | > 10 | > 10 | > 10 | > 10
10 | Oc1ccc2c(c1)CC[C@H](c1ccccc1)[C@@H]2c1ccc(OCCN2CCCC2)cc1 [Lasofoxifene] | 0.434 | 0 | 0.881 | 0 | 1.01 | 1.49 | 0.854 | 0 | 0 | 0 | 0 | 0 | 0 | 0 | 0 | – | > 1 | – | > 1 | 0.449 | – | – | > 1 | > 1 | > 1 | > 1 | > 1 | > 1 | > 1 | > 1
11 | CCN(CC)CCCC(C)Nc1ccnc2cc(Cl)ccc12 (centres undefined) [Chloroquine] | 0.999 | 0 | 0 | 0 | 0.266 | 0 | 0 | 0 | 0 | 0 | 0 | 0 | 0 | 0 | 0 | – | > 990 | > 990 | > 990 | – | > 990 | > 990 | > 990 | > 990 | > 990 | > 990 | > 990 | > 990 | > 990 | > 990
12 | CNC(=O)c1ccc(N2C(=S)N(c3ccc(C#N)c(C(F)(F)F)c3)C(=O)C23CCC3)cc1F [RD162] | 0.498 | 0 | 0 | 0 | 0.0464 | 0 | 1.42 | 0 | 0 | 0 | 0 | 0 | 0 | 0.215 | 0 | – | > 10 | > 10 | > 10 | – | > 10 | – | > 10 | > 10 | > 10 | > 10 | – | > 10 | > 10 | > 10
13 | Clc1ccc(Nc2nnc(Cc3ccncc3)c3ccccc23)cc1 [Vatalanib] | 0.0042 | 0 | 0 | 0 | 0 | 0 | 0 | 0 | 0 | 0 | 0 | 0 | 0 | 0 | 0 | – | > 10 | > 10 | > 10 | – | > 10 | > 10 | > 10 | > 10 | > 10 | > 10 | > 10 | > 10 | > 10 | > 10
14 | COc1cc(Nc2c(C#N)cnc3cc(OCCCN4CCN(C)CC4)c(OC)cc23)c(Cl)cc1Cl [Bosutinib] | 8.71 | 4.93 | 10.5 | 2.05 | 8.93 | 4.57 | 3.41 | 0.537 | 0.173 | 0.731 | 6.72 | 3.08 | 2.64 | 3.44 | 7.41 | 1.61 | 2.95 | 1.13 | 4.02 | 1.58 | 3.14 | 4.01 | – | 1.78 | 3.19 | 2.48 | 3.38 | 1.32 | – | –
15 | O=C(/C=C/c1cccnc1)NCCCCC1CCN(C(=O)c2ccccc2)CC1 [Daporinad (FK-866 HCl)] | 1.29 | 0 | 8.73 | 0 | 5.63 | 15.8 | 10.4 | 0 | 0 | 0 | 18.9 | 0 | 24.1 | 20.7 | 27.2 | – | – | 0.0743 | > 1 | 0.0943 | 0.019 | 0.0541 | > 1 | 0.0147 | > 1 | 0.00721 | 0.0132 | 0.00387 | > 1 | > 1
